Experimental findings from US6136798A, “Compounds inhibiting the association of the PDGF receptor and phosphatidylinositol 3-kinase and their use” (Warner-Lambert Company, priority 1999, dated 2000) are described below.

The target in assay [1] is T1, PDGF-β receptor tyrosine kinase intracellular domain / p85 SH2 fusion protein (PDGF Receptor/PI3-Kinase Association) (Homo sapiens, UniProt P27986).
T1 construct: The pGEX plasmid expressing the carboxy-terminal SH2 of the p85 subunit of PI3-kinase; made in house; host or cells: p85 SH2-GST: E. coli; PDGF-β receptor intracellular domain: SF9 insect cells, obtained from L. T. Williams (UCSF)
T1 sequence (P27986 624-718 limits assumed): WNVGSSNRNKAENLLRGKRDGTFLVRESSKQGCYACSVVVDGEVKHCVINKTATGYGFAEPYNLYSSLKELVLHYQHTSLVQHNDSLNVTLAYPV
The experiment in a line: p85 SH2--PDGF-β Receptor Binding Assay. The following applies: [35S]p85 C-terminal SH2 fusion protein binding to phosphorylated PDGF-β receptor; 25° C., 20 minutes. The procedure:
The pGEX plasmid expressing the carboxy-terminal SH2 of the p85 subunit of PI3-kinase in a glutathione-s-transferase (GST) fusion protein was used in these studies. Expression and purification of the fusion protein was performed as previously described by Zhu, et al., J. Biol. Chem., 1993;268:1175. To prepare [^35 S]p85 fusion proteins, a 125 mL overnight culture of E. coli expressing the p85-GST fusion protein was added to 1000 mL of LB broth containing 100 μg/mL ampicillin. The cultures were incubated at 37° C. until reaching a density of A600 =1.0. 1 mM of isopropyl-β-D-thiogalactoside was added and 15 minutes later, 10 mCi of trans ^35 S-label was added and cultures incubated for an additional 3 hours at 37° C. The cells were then lysed by sonication and fusion proteins purified over glutathione-agarose beads.
Lysates from SF9 insect cells expressing the PDGF-β receptor tyrosine kinase intracellular domain, obtained from L. T. Williams at the University of California at San Francisco, were incubated with M2 affinity beads and the complexes were washed several times with Tris buffer containing protease inhibitors and sodium orthovanadate. Complexes were centrifuged and resuspended in N-[2-hydroxyethyl]piperazine-N'-[2-ethane sulfonic acid] (HEPES) buffer containing 1 mM adenosine triphosphate (ATP), 10 mM MnCl2, and 5 mM MgCl2 to stimulate phosphorylation of the PDGF receptor.
Binding of [^35 S]p85 SH2 fusion proteins to the phosphorylated PDGF-β receptor tyrosine kinase intracellular domain was assayed in Hepes buffer containing ethylene diamine tetraacetic acid (EDTA), NP-40 and […] of each of the protease inhibitors, PMSF, pepstatin, leupeptin, and aprotinin. Binding assays were performed in 96-well millipore filter plates in a final volume of […] of HEPES buffer containing 135 μL phosphorylated PDGF receptor-beads complex (1 μg receptor/well), 10 μL [^35 S]p85 SH2 fusion protein (30,000 cpm/well), and 5 μL of peptide inhibitor as indicated. Samples were incubated at 25° C. for 20 minutes with continuous rocking. Binding was terminated by filtration through the filter plates using a millipore multiscreen filtration manifold Millipore, Bedford, Mass.). Filter plates were washed four times with 0.15 mL Hepes buffer followed by the addition of 40 μL hi-load scintillant and radioactivity retained on the filters was counted in a Wallac 1450 Microbeta counter (Wallac Inc, Gaithersburg, Md.). Total binding was defined as [^35 S]p85 fusion protein bound to the PDGF-β receptor-bead complex retained on the filter plate after washing. Nonspecific binding was defined as radioactivity retained on the filter plates in the presence of excess unlabeled p85 fusion protein. Specific binding was defined as total binding minus nonspecific binding. IC50 values were calculated by weighted nonlinear regression curve fitting.

The target of assay [2] is T2, PDGF Receptor/PI 3-Kinase association in rat aortic smooth muscle cells (Rattus norvegicus, UniProt Q63787).
T2 construct: endogenous in cells; host or cells: rat aortic smooth muscle cells (RASMC), primary, passages 5 to 20
T2 sequence (Q63787 whole entry): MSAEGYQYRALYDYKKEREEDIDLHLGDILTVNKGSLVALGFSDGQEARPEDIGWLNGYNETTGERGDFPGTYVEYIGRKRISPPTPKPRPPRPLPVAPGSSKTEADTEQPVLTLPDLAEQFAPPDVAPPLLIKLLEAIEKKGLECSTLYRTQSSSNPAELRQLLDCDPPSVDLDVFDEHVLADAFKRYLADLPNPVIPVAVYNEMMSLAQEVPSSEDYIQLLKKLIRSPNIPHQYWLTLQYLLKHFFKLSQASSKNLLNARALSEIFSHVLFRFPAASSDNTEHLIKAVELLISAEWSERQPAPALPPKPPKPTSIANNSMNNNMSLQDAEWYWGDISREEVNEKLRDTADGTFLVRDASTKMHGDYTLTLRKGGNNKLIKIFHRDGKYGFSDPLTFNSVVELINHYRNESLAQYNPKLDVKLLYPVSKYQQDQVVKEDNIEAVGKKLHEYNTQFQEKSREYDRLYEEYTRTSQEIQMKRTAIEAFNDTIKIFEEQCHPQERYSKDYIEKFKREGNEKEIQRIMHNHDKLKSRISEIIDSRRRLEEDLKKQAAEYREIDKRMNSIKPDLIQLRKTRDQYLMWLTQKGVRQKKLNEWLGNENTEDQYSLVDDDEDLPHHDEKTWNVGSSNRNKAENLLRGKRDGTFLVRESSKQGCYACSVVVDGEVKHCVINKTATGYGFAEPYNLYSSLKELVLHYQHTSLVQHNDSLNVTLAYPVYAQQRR
Description: PDGF Receptor/PI 3-Kinase Cell Association Assay. In kind it is cell-based. The following applies: RASMC, PDGF-BB 30 ng/mL 5 minutes; for inhibition at 25 µM: printed in the Cellular IC50 column, read-out: Inhibition of PDGF Receptor/PI3-Kinase Association (Cellular). As to the method: Smooth muscle cells were isolated from the thoracic aorta of rats (RASMC) and explanted according to the method of Ross, J. Biol. Chem., 1971;30:172-86. Cells were grown in Dulbecco's modified Eagle's medium (DMEM, Gibco) containing 10% fetal calf serum (FBS, Hyclone, Logan, Utah), 1% glutamine (Gibco) and 1% penicillin/streptomycin (Gibco). Cells were identified as smooth muscle cells by their "hill and valley" growth pattern and by fluorescent staining with a monoclonal antibody specific for SMC […] (Sigma). RASMC were used between passages 5 and 20 for all experiments. Test compounds were prepared in dimethylsulfoxide (DMSO) in order to achieve consistency in the vehicle and to ensure compound solubility. Appropriate DMSO controls were simultaneously evaluated with the test compounds.
Rat aortic smooth muscle cells were grown to confluency in 100 mm dishes. Growth medium was removed and replaced with serum-free medium and cells were incubated at 37° C. for an additional 24 hours. Test compounds were then added directly to the medium and cells incubated for an additional 24 hours. After 24 hours PDGF-BB was added at a final concentration of 30 ng/mL for 5 minutes at 37° C. to stimulated autophosphorylation of the PDGF receptor and association of PI 3-kinase to the phosphorylated receptors. […] Following incubation with ^125 I-protein-A, p85 protein levels were detected by phosphorimage analysis and protein bands quantitated via densitometry. […]

What is called IC50 is the concentration needed to halve the response being measured. `CCCCCCN(CCCCCC)C(=O)[C@H](C)NC(=O)[C@@H](NC(=O)[C@H](Cc1ccc(C(F)(F)P(=O)(O)O)cc1)NC(C)=O)C(C)C` [Example 1, [1S-[1R*[R*(R*)]]]-[(4-{2-Acetylamino-2-[1-(1-dihexylcarbamoyl-ethylcarbamoyl)-2-methyl-propylcarbamoyl]-ethyl}-phenyl)-difluoro-methyl]-phosphonic acid]: the IC50 in assay [1] was determined as 450 ± 40 nM.

In the case of `CCCCCN(CCCCC)C(=O)[C@H](C)NC(=O)[C@@H](NC(=O)[C@H](Cc1ccc(C(F)(F)P(=O)(O)O)cc1)NC(C)=O)C(C)C` [Example 2, [1S-[1R*[R*(R*)]]]-[(4-{2-Acetylamino-2-[1-(1-dipentylcarbamoyl-ethylcarbamoyl)-2-methyl-propylcarbamoyl]-ethyl}-phenyl)-difluoro-methyl]-phosphonic acid], the IC50 in assay [1] worked out at 290 ± 80 nM. For the same compound, the inhibition at 25 µM in assay [2] is 30%.

The compound `CCCCCCCCN(CCCCCCCC)C(=O)[C@H](C)NC(=O)[C@@H](NC(=O)[C@H](Cc1ccc(C(F)(F)P(=O)(O)O)cc1)NC(C)=O)C(C)C` [Example 3, [1S-[1R*[R*(R*)]]]-[(4-{2-Acetylamino-2-[1-(1-dioctylcarbamoyl-ethylcarbamoyl)-2-methyl-propylcarbamoyl]-ethyl}-phenyl)-difluoro-methyl]-phosphonic acid] had an IC50 in assay [1] of 12200 ± 900 nM.

Take `CCCCCCN(CCCCCC)C(=O)[C@H](C)NC(=O)[C@@H](NC(=O)[C@H](Cc1ccc(OP(=O)(O)O)cc1)NC(C)=O)C(C)C` [Example 4, [1S-[1R*[R*(R*)]]]-Phosphoric acid mono-(4-{2-acetylamino-2-[1-(1-dihexylcarbamoyl-ethylcarbamoyl)-2-methyl-propylcarbamoyl]-ethyl}-phenyl) ester]: in assay [1], the IC50 is 80 ± 10 nM. The inhibition at 25 µM in assay [2] was 27%.

As for `CCCCN(CCCC)C(=O)[C@H](C)NC(=O)[C@@H](NC(=O)[C@H](Cc1ccc(OP(=O)(O)O)cc1)NC(C)=O)C(C)C` [Example 6, [1S-[1R*[R*(R*)]]]-Phosphoric acid mono-(4-{2-acetylamino-2-[1-(1-dibutylcarbamoyl-ethyl-carbamoyl)-2-methyl-propylcarbamoyl]-ethyl}-phenyl) ester], the IC50 in assay [1] was determined as 1600 ± 320 nM; in assay [2] (24 h compound, p85 immunoblot, read-out: Cellular IC50), 37500 nM.

As to `CCCCCN(CCCCC)C(=O)[C@H](C)NC(=O)[C@@H](NC(=O)[C@H](Cc1ccc(OP(=O)(O)O)cc1)NC(C)=O)C(C)C` [Example 8, [1S-[1R*[R*(R*)]]]-Phosphoric acid mono-(4-{2-acetylamino-2-[1-(1-dipentylcarbamoyl-ethyl-carbamoyl)-2-methyl-propylcarbamoyl]-ethyl}-phenyl) ester], in assay [1], the IC50 turned out to be 220 nM.

In turn, `CCCCCCCCN(CCCCCCCC)C(=O)[C@H](C)NC(=O)[C@@H](NC(=O)[C@H](Cc1ccc(OP(=O)(O)O)cc1)NC(C)=O)C(C)C` [Example 10, [1S-[1R*[R*(R*)]]]-Phosphoric acid mono-(4-{2-acetylamino-2-[1-(1-dioctylcarbamoyl-ethyl-carbamoyl)-2-methyl-propylcarbamoyl]-ethyl}-phenyl) ester] registered an IC50 in assay [1] of 3500 ± 500 nM.
